Measurements as given in US20110318375A1, “Immunomodulatory Therapeutic Agents” (priority 2009, published 2011).

Tested on: Cytokine 12 Panel
Experiment: Cytokine 12 panels after IV dose of 50 mg synthetic Fibrinopeptide A
Format: in vivo, human
Design: IL-10 / TNF-α / IL-2 / IL-12: unit not given here
Conditions: for IFN-γ / IL-4 / IL-5 / IL-6 / IL-8 / IL-13: nl: 0-5; for IL-12: nl: 0-6; for IL-2: nl: 0-12; for IL-10: nl: 0-18; for TNF-α: nl: 0-22; for IL-1β: nl: 0-36; for IL-2R: nl: 0-1033
Excerpt: Peptide was suspended in an appropriate medium and a healthy volunteer took the preparation daily for two weeks, drawing blood for a cytokine 12 panel every five days. Due to the size of the molecules absorption from the mucosal route seemed unlikely, and the rapid digestion of peptides in the stomach would eliminate their efficacy in a true oral route. This same healthy volunteer had lab work drawn right before receiving an IV dose of synthetic Fibrinopeptide A. The IV dose was expected to have a more profound therapeutic effect, since treatment was simulating a normal intravascular biologic process. […] (Table 3). [table] In addition to these elevations, a mild elevation of Interleukin-6 was also observed. Interleukin-6 is a pro-inflammatory cytokine and is a very strong stimulator of the innate immune system. […] The most significant of these tests is the blood drawn one month after the IV dose was given. In this test the marked elevation of at least IL-10 and IL-1β, which had been present in each of the other dosages given by any route, was observed. […] This location for primary activity also explains the stimulation of the adaptive immune system over the innate immune response, as the lymphatic system is more involved in the adaptive response, while the vascular system is more involved in the innate response. The response to orally administered Fibrinopeptide A also solidifies this location of activity as transmucosal absorption occurs almost exclusively through the lymphatic route, occurs rapidly for those molecules which are absorbed, and the oral submucosal region (especially the sublingual region) has an extensive lymphatic drainage with rapid access to the cells which would produce this type of response while at least partially being shielded from the enzymes that inactivate the peptides of this invention. Since chronic fibrin deposition in the extravascular space is always pathologic and pro-inflammatory, it is not surprising that patients have a mechanism triggered by this deposition to aid in the removal of these substances. […] By signaling the need for removal from the extravascular space, the same process should occur for similar chronic deposits in the subintimal space.

## ADSGEGDFLAEGGGV (listed as Homo sapiens) [Fibrinopeptide A]
10 Hours after IV 50 mg
  IFN-γ: <5
  IL-4: <5
  IL-5: <5
  IL-6: 11
  IL-8: <5
  IL-12: <5
  IL-2: <5
  IL-10: 87
  TNF-α: <5
  IL-1β: 52
  IL-2R: 475
14 hours after IV 50 mg
  IFN-γ: <5
  IL-4: <5
  IL-5: <5
  IL-6: 10
  IL-8: <5
  IL-12: <5
  IL-2: <5
  IL-10: 87
  TNF-α: <5
  IL-1β: 54
  IL-2R: 492
60 hours after IV 50 mg
  IFN-γ: <5
  IL-4: <5
  IL-5: <5
  IL-6: 7
  IL-8: <5
  IL-12: <5
  IL-2: <5
  IL-10: 74
  TNF-α: <5
  IL-1β: 54
  IL-2R: 425
30 days after IV 50 mg
  IFN-γ: <5
  IL-4: <5
  IL-5: <5
  IL-6: <5
  IL-8: <5
  IL-13: <5
  IL-12: <5
  IL-2: <5
  IL-10: 22
  TNF-α: <5
  IL-1β: <5
  IL-2R: 546
IV dose 10 times stronger than the subcutaneous dosage given previously
  response of the cytokine panel to IV administration: no appreciable response
Pre and 1 month after IV Use
  IFN-γ: <5
  IL-4: <5
  IL-5: <5
  IL-6: <5
  IL-8: <5
  IL-13: <5
  IL-12: <5
  IL-2: <5
  IL-10: 22
  TNF-α: <5
  IL-1β: <5
  IL-2R: 546
